One assay relates to Sprague Dawley rats. The assay can be described thus: Intestinal motility disturbances (MMC disruption) caused by intravenous endotoxin. It is filed as in vivo, rat. The protocol:
Intravenous injection of LPS at either 10 or 20 μg/kg disrupted the normal fasting pattern of intestinal MMCs into the characteristic fed pattern which persisted for 85±3 min (n=3) and 105±8 min (n=15), respectively. The disruptions in the MMCs developed within 20±4 min and 17±1 min for the respective 10 and 20 μg/kg doses of LPS. The 20 μg/kg dose of LPS was used for subsequent experiments.
Intestinal Motility. Male and female Sprague Dawley rats, weighing 200-250 g were raised at the Life and Environmental Sciences Animal Resource Centre, The University of Calgary. The rats were maintained with lights on from 7:00 to 19:00 h, and were provided food and water ad libitum. For the intestinal motility experiments lipopolysaccharide (LPS; Salmonella typhosa; Sigma Chemical Co., St. Louis, […].) was injected intravenously at a dose of 20 μg/kg (Helistrom et al, 1997).
For motility recording rats were surgically prepared, as previously described (Mathison et al, 1998), with three bipolar jejunal electrodes under halothane anesthesia following an 18 h fast. A plastic cannula, with three pairs of Teflon-coated stainless steel bipolar electrodes, was positioned in an intrascapular region. The wires were subcutaneously tunnelled to the anterior abdominal wall, entering the peritoneal cavity through a stab incision. […] An eight-channel chart recorder (Hewlett-Packard, model 7858A) simultaneously recorded the electric signals generated by the migrating myoelectric complexes (MMCs), for three cycles before and 120 min after intravenous challenge with 20 μg/kg of LPS. […]
Changes in intestinal motility were detected by modifications in jejunal myoelectric activity from the standard MMCs that occur in fasting animals to a totally disrupted pattern of intense, irregular myoelectric electricity that developed with the endotoxic reaction. Before and after challenge with LPS, the cycle period of MMCs was determined by measuring the time between the ends of phase III activity (the marked increase in regular phasic myoelectric and motor activity) of successive MMCs.

The conditions of assay [1]: doses as low as 1 μg/kg; cited from earlier work.
The subject of another assay is leukocytes. The following applies: in vivo; cited from earlier work.
In assay [2] the test system is CD16b. The assay can be described thus: PAF induced CD16b expression on human neutrophils detected by CD16a.FITC. It is filed as cell-based. The note with it: 10-11M peptide; PAF 10^-9M (FIG. 11). Here is the method: (§1) The expression of CD11b and CD16b on the surface of neutrophils are represented as the difference in the mean fluorescence intensity (MFI) measured in cells incubated in the presence of PAF alone and those incubated with 10-11M concentration of peptide and PAF. Many of the tripeptides reduced the expression of CD11b and CD16b on human neutrophils that had been stimulated with platelet activating factor (PAF; 10^-9M).
(§2) Leukocytes were isolated from the blood of normal healthy volunteers. The blood (20 ml) was brought to a final volume of 50 ml with cold lysis buffer (155 mM NH4Cl, 10 mM KHCO3, 1 mM disodium EDTA, pH 7.4). […]
(§3) Once isolated the neutrophils were prepared to a final concentration of […] in phosphate buffered saline (PBS). […] The supernatant is decanted off carefully and 300 μl of PBS is added to the neutrophils and cells are read with a Fluorescence Activated Cell Sorter (FACS).
(§4) The effects of the peptides on CD11b or CD16b expression were evaluated by determining the changes in mean fluorescence intensity (MFI) of cells incubated in the presence of peptide and PAF and the those incubated in presence of PAF alone, after subtracting the background (Control) MFI expressed in cells incubated with neither PAF nor a peptide. […]

The next assay deals with sensitized rat ileum. The assay can be described thus: Antigen induced contraction of the sensitized rat ileum (intestinal anaphylaxis in vitro). It counts as cell-based. The note with it: 10 ig of peptide in bath, 10 min, then 1 mg OA (FIG. 1). The protocol:
The Biological Response. The addition of antigen (OA) induced a slow tonic contraction of the intestinal (ileal) segments which peaked within 2 to 3 minutes before slowly receding to the baseline tension over 4 to 5 minutes. Urecholine (URE) produced a rapid tonic contraction that reached its maximum in 10 to 15 seconds. […] When FEG was added to the bath the OA/URE ratio was only 0.12±0.04, or 44% of the control response.
Effects of C-terminus substitutions, N-terminus substitutions, aromatic substitution at position 1, and Asp substitution at position 2 in both L and D forms in FEG, and removal of the glycine on inhibition of intestinal anaphylaxis in vitro.
In this in vitro motility study analogues of the tripeptide FEG were examined for their inhibitory effects on an anaphylactic reaction provoked by antigen on intestinal segments isolated from ovalbumin sensitized rats. […] Four to six weeks following sensitization, the terminal ileum was excised and 2 cm sections were mounted in 20 ml organ baths under 0.75 g of tension and the isometric force generated by OA and urecholine (Frosst, Kirkland, QC) was measured using a Grass Force Displacement Transducer FT03 (Quincy, Mass.). […] Anti-anaphylactic properties of FEG and its analogues were determined by adding 10 ig of peptide to a bath and incubating for 10 min. […] OA contractile response was measured at peak contraction. […]

In assay [3] the test system is CD16b. The assay can be described thus: PAF induced CD16b expression on human neutrophils detected by CD16b.FITC. It counts as cell-based. The following applies: 10-11M peptide; PAF 10^-9M (FIG. 11). The protocol:
as §1, §2, §3, §4

Ends that are not written are not given here.

As for TDIFEGG [SGP-T], in the assay on Sprague Dawley rats (intravenous dose of 350 μg/kg), the “duration of MMC disruption” value is reported as “significantly reduced”. In addition, the “duration of LPS disrupted intestinal MMCs” value in the assay on Sprague Dawley rats (intravenous, 100 μg/kg, 20 min before LPS 20 μg/kg iv) was “ineffective”. In addition, the lipopolysaccharide induced hypotension result in assay [1] is given as “inhibits”. Besides, the “rolling of leukocytes on mesenteric venules induced by LPS and histamine” value in the assay on leukocytes is “prevents”.

With H-D-phe-D-glu-Gly-NH2 [feG(NH2)], the “inhibition of LPS induced disruption of the MMCs, dose response” value in the assay with Sprague Dawley rats (FIG. 3b) is listed as “very potent”. In addition, in the assay with CD16b [2], the “CD16b expression detected by CD16a.FITC” value was “reduced”.

For H-D-cha-D-glu-OH [(cha)e], the “biological activity: inhibition of antigen induced contraction of the ileum” value with sensitized rat ileum is “active”. In addition, the “CD16b expression detected by CD16b.FITC” value with CD16b [3] is reported as “reduced”.

Turning to H-D-cha-D-glu-NH2 [(cha)e(NH2)], the “CD16b expression detected by CD16a.FITC” value in the assay with CD16b [2] is “reduced”.

The values are drawn from patent publication US6586403B1, “Treating allergic reactions and inflammatory responses with tri-and dipeptides” (Salpep Biotechnology, Inc., priority 2000, dated 2003).
